Results from patent US10023560B2, “Crystalline salt form of (S)-(2-(6 chloro-7-methyl-1H-benzo[d]imidazol-2-yl)-2-methylpyrrolidin-1-yl)(5-methoxy-2-(2H-1,2,3-triazol-2-yl)phenyl)methanone as orexin receptor antagonist” (priority 2013, dated 2018).

What was measured:
[1] = system: humans; details: indication primary insomnia; cited from earlier work
[2] = system: rat; details: cited from earlier work
[3] = system: rats; details: cited from earlier work
[4] = system: rat; details: animal model of conditioned fear; cited from earlier work
[5] = system: rats; details: rats treated with the compound; cited from earlier work
[6] = system: amyloid precursor protein transgenic mice; details: after acute sleep restriction; cited from earlier work
[7] = system: mouse; details: mouse model of depression, administered chronically; cited from earlier work
[8] = system: fasted hungry rats; details: fasted hungry rats exposed to food odors; cited from earlier work
[9] = system: rat; details: rat model; cited from earlier work
[10] = Gravimetric vapour sorption (GVS) analysis; type: physicochemical
Procedure: Gravimetric Vapour Sorption (GVS) Analysis
The sample was allowed to equilibrate at 40% RH before starting a pre-defined humidity program (40-0-95-0-95-40% RH, steps of 5% ΔRH and with a maximal equilibration time of 24 hours per step were applied. About 20 to 30 mg of each sample was used. The hygroscopic classification is done according to the European Pharmacopeia Technical Guide (1999, page 86), e.g., slightly hygroscopic: increase in mass is less than 2% and equal to or greater than 0.2% mass/mass; hygroscopic: increase in mass is less than 15% and equal to or greater than 2% mass/mass. The mass change between 40% relative humidity and 80% relative humidity in the first adsorption scan is considered.

[11] = system: Wistar rats; test: Sedative effects: EEG, EMG and behavioural indices of alertness by radiotelemetry; type: in vivo; details: 30 mg/kg po, effects analyzed over 6 hours
Procedure: Sedative Effects: EEG, EMG and Behavioural Indices of Alertness Recorded by Radiotelemetry In Vivo in Wistar Rats.
Electroencephalography (EEG) and Electromyography (EMG) signals were measured by telemetry using TL11M2-F20-EET miniature radiotelemetric implants (Data Science Int.) with two pairs of differential leads.
Surgical implantation was performed under general anesthesia with Ketamin/Xylazin, for cranial placement of one differential pair of EEG electrodes and one pair of EMG leads inserted in either side of the muscles of the neck. After surgery, rats recovered in a thermoregulated chamber and received analgesic treatment with subcutaneous buprenorphine twice a day for 2 d. They were then housed individually and allowed to recover for a minimum of 2 weeks. Thereafter, rats—in their home cage—were placed in a ventilated sound-attenuating box, on a 12-h light/12-h dark cycle, for acclimatization before continuous EEG/EMG recordings started. The telemetric technology that we used in this study allows accurate and stress-free acquisition of biosignals in rats placed in their familiar home cage environment, with no recording leads restricting their movements. Variables analyzed included four different stages of vigilance and sleep, spontaneous activity in the home cage and body temperature. Sleep and wake stages were evaluated using a rodent scoring software (Somnologica Science) directly processing electrical biosignals on 10 s contiguous epochs. The scoring is based on frequency estimation for EEG and amplitude discrimination for EMG and locomotor activity. Using these measurements, the software determines the probability that all components within each epoch best represent active waking (AW), quiet waking (QW), non-REM-sleep (NREM) or REM-sleep (REM). The percentage of total time spent in AW, QW, NREM- and REM-sleep was calculated per 12 h light or dark period. The latency to the onset of the first significant NREM- and REM-sleep episodes and the frequency and duration of those episodes were also calculated. […] All variables were subsequently recorded for 12 h following administration of the orexin receptor antagonist.

[12] = system: rodents; details: cited from earlier work
[13] = system: rodents; details: induced by repeated amphetamine administration in rodents; cited from earlier work

Compound: CNC(=O)[C@@H](c1ccccc1)N1CCc2cc(OC)c(OC)cc2[C@@H]1CCc1ccc(C(F)(F)F)cc1 [(2R)-2-{(1S)-6,7-dimethoxy-1-[2-(4-trifluoromethyl-phenyl)-ethyl]-3,4-dihydro-1H-isoquinolin-2-yl}-N-methyl-2-phenyl-acetamide]
- clinical efficacy [1]: showed clinical efficacy
- alertness (active wake and locomotion) [2]: decrease alertness
- time spent in REM and NREM sleep [2]: dose-dependently increase
- cardiovascular responses to conditioned fear and novelty exposure [3]: attenuated
- activity in rat fear-potentiated startle paradigm [4]: active
- declarative and non-declarative learning and memory [5]: intact
- brain levels of amyloid-beta (Aβ) and Aβ plaque deposition [6]: decreased
- antidepressant-like activity [7]: induce antidepressant-like activity
- natural activation induced by orexin A [8]: attenuate
- activity in nicotine self-administration [9]: displayed pharmacological activity

Compound: COc1ccc(-n2nccn2)c(C(=O)N2CCC[C@@]2(C)c2nc3ccc(Cl)c(C)c3[nH]2)c1.Cl [COMPOUND hydrochloride, (S)-(2-(6-chloro-7-methyl-1H-benzo[d]imidazol-2-yl)-2-methylpyrrolidin-1-yl)(5-methoxy-2-(2H-1,2,3-triazol-2-yl)phenyl)methanone hydrochloride]
- Hygroscopicity classification ([10]; 25° C., European Pharmacopeia Technical Guide classification): Non hygroscopic (mass change smaller then
- Hygroscopicity: mass change ([10]; between 40% and 80% relative humidity, first adsorption scan, 25° C.): < 0.1%
- Sorption behavior between cycles ([10]; first to second cycle): Reproducible, cycle independent

Compound: COc1ccc(-n2nccn2)c(C(=O)N2CCC[C@@]2(C)c2nc3c(C)c(Cl)ccc3[nH]2)c1 [COMPOUND, (S)-(2-(6-chloro-7-methyl-1H-benzo[d]imidazol-2-yl)-2-methylpyrrolidin-1-yl)(5-methoxy-2-(2H-1,2,3-triazol-2-yl)phenyl)methanone]
- effect on NREM sleep compared to vehicle controls [11]: +27%
- effect on REM sleep compared to vehicle controls [11]: +53%
- effect on active wake compared to vehicle controls [11]: −24%
- effect on home cage activity compared to vehicle controls [11]: −31%
- Hygroscopicity: sorption of moisture ([10]; humidity program 40-0-95-0-95-40% RH, 25° C.): ≤ 2.7 % moisture mass/mass

Compound: Cn1c(SCC(=O)N2CCC[C@H]2C(=O)Nc2ccccc2-c2ccccc2)nc2ccccc21 [N-biphenyl-2-yl-1-{[(1-methyl-1H-benzimidazol-2-yl)sulfanyl]acetyl}-L-prolinamide]
- nicotine-reinstatement for a conditioned reinforcer [12]: inhibited
- behavioral (locomotor sensitization) and molecular (transcriptional responses) changes [13]: reduced
